“Also recorded” adds a separate entry of the source.

Experiment [1] deals with deoxycorticosterone/salt-induced hypertension. Particulars: chronic oral treatment of rats; Jackson et al. 2016; cited from earlier work.
For experiment [2] the following is noted: Jackson et al., J Pharmacol Exp Ther 2016; cited from earlier work.
Experiment [3] has as its system aged rats. Kind of experiment: Voiding analysis in metabolic cages, aged rats. The format is in vivo, rat. Particulars: aged rats; intravesical 5 μM forodesine plus 10 μM DEA-NONOate, 3 weeks of treatment; vs aged control rats.
Experiment [4] relates to aged rats. Put plainly: Voiding analysis in metabolic cages, aged rats. The format is in vivo, rat. Particulars: aged rats; intravesical 5 μM forodesine plus 10 μM DEA-NONOate, 3 weeks of treatment; vs aged control rats. How it is done:
Experimental design: Young (3 months of age) and aged (25 to 30 months of age) Fisher 344 rats were used in these experiments. Some of the aged Fisher 344 rats were treated with 8-AG (5 mg kg/day via drinking water) for 1 month.
Voiding analysis: Rats were placed in metabolic cages for 24 hr (once per week for the duration of the study). Voided urine was collected in cups attached to force displacement transducers (GRASS TECHNOLOGIES®, Warwick, R.I.) connected to a computer running WINDAQ™ data acquisition software (DATAQ™ Instruments Inc., Akron, Ohio). Data were averaged for 24 h, and voiding frequency, total voided volume, and volume per void were analyzed. Voiding frequency was calculated as the number of voiding events per hour during 24 h, and volume per void, which defines bladder capacity, was calculated as an average of the voids occurring during these periods.
Animals: Male and female Fisher 344 rats were employed (Charles River; Wilmington, Mass. and the NIA rodent colony). Some rats were young (3 months of age), some were aged (25-30 months of age), and others were aged and treated with oral 8-AG (5 mg/kg/day; 6 weeks). Under isoflurane anesthesia and using an aseptic technique, an incision was made into the lower abdomen and in the scapular area. Sterile PE50 tubing was threaded subcutaneously from the lower abdomen to the scapular area and connected to a one-channel vascular access button (Intech Laboratories, Plymouth Meeting, Pa.). In the abdomen, the tubing was inserted into the bladder and secured with a small purse-string suture. The incisions were closed, and the animals were allowed to recover for 7-10 days before further experimentation. Animals were divided into three groups. A control group of aged rats received daily infusions with 10 μM DEA-NONOate (SIGMA-ALDRICH®, St. Louis, Mo.) in sterile 0.9% saline. A second group received 100 μM 8-AG plus 10 μM DEA-NONOate in 0.9% saline, and a third group received 5 μM forodesine (SIGMA-ALDRICH®) plus 10 μM DEA-NONOate in 0.9% saline. Bladders were instilled via a catheter tether kit (Instech Laboratories) connected to a syringe pump for continuous infusion (rate 200 μl/min; 30 minutes/daily) for 3-6 weeks. The Institutional Animal Care and Use Committee approved all procedures. The investigation conforms to the Guide for the Care and Use of Laboratory Animals published by the US National Institutes of Health (NIH Publication No. 85-23, revised 1996).
Protocol 1: Young, aged, and 8-AG-treated aged rats were placed in metabolism cages for 24 hr once per week. The light cycle was from 7:00 AM to 7:00 PM, and food and water were provided ad libitum. Voided urine was collected in cups attached to force displacement transducers (GRASS TECHNOLOGIES®, Warwick, R.I.) that were connected to a computer running Windaq data acquisition software (DATAQ® Instruments I2nc., Akron, Ohio). Data were averaged for 24 h and analyzed for 12-h periods during the day (7:00 AM-7:00 PM) and night (7:00 PM-7:00 AM). Voiding frequency, total voided volume, and volume per void were analyzed. Voiding frequency was calculated as the number of voiding events per hour during 24 h and during the 12-h day and 12-h night periods. Volume per void, which defines bladder capacity, was calculated as an average of the voids occurring during these periods.
Voiding Analysis: Young, aged, and 8-AG-treated aged rats were placed in metabolic cages (24 hr; once per week) for the duration of the study. The light cycle was from 7:00 AM to 7:00 PM, and food and water were provided ad libitum. Voided urine was collected in cups attached to force displacement transducers (Grass Technologies, Warwick, R.I.) connected to a computer (Windaq data acquisition software DATAQ Instruments Inc., Akron, Ohio). Data were averaged for 24 h and analyzed for 12-h periods during the day (7:00 AM-7:00 PM) and night (7:00 PM-7:00 AM). Voiding frequency, total voided volume, and volume per void were analyzed. […]
The source holds these as a separate data set.

Turning to `Nc1nc2c(nc(N)n2[C@@H]2O[C@H](CO)[C@@H](O)[C@H]2O)c(=O)[nH]1` [8-aminoguanosine, 8-Aminoguanosine, reference compound], in experiment [1], the “development of deoxycorticosterone/salt-induced hypertension” value was “attenuate”. Besides, in experiment [2], the diuresis entry was “induce”, the glucosuria entry is “induce”, the natriuresis result is reported as “induce” and the potassium excretion entry was “reduce”.

Turning to `O=c1[nH]cnc2c([C@@H]3N[C@H](CO)[C@@H](O)[C@H]3O)c[nH]c12` [forodesine, 7-[(2S,3S,4R,5R)-3,4-dihydroxy-5-(hydroxymethyl)pyrrolidin-2-yl]-3H,4H,5H-pyrrolo[3,2-d]pyrimidin-4-one, reference compound], in the experiment with aged rats [3], the inter-contraction interval result was “significant improvement; also recorded: significantly attenuates”. Moreover, in the experiment with aged rats [4], the voided volume entry is given as “significant improvement; also recorded: significantly attenuates” and the voiding frequency entry is reported as “significant improvement; also recorded: significantly attenuates”.
